In ChEMBL document CHEMBL5055656, “Synthesis of novel indole-thiazolidinone hybrid structures as promising scaffold with anticancer potential” (Bioorg Med Chem, 2021):
The source made the active and inactive calls. The rule behind the calls is not given here.

Tests used:
[1] = Selectivity index, ratio of GI50 for human HaCaT cells to GI50 for human WM793 cells
[2] = Selectivity index, ratio of GI50 for mouse BALA/3T3 cells to GI50 for human HepG2 cells measured after 48 hrs by neutral red uptake assay; format: toxicity; conditions: BALA/3T3 cells versus HepG2 cells, read-out: Selectivity Index
HCT-116 [3] = assay: Induction of apoptosis in human HCT-116 cells assessed as decrease in Cdk2 expression at 45 uM after 24 hrs by Western blot analysis; format: functional, cell-based
[4] = (§1) Cytotoxicity against mouse BALB/3T3 cells assessed as cell growth inhibition measured after 24 hrs by neutral red uptake assay; format: cell-based; conditions: BALB/3T3 cells
BALB/3T3 [5] = assay: as §1; format: cell-based; conditions: balb/3t3, 24 h
HepG2 [6] = assay: Cytotoxicity against human HepG2 cells assessed as cell growth inhibition measured after 48 hrs by coomassie brilliant blue staining based total cellular protein assay; format: functional
[7] = Selectivity index, ratio of GI50 for human HaCaT cells to GI50 for human A549 cells; format: toxicity; conditions: HaCaT cells versus A549 cells, read-out: RatioGI50
A549 = assay: Cytotoxicity against human A549 cells assessed as cell growth inhibition measured after 72 hrs by MTT assay; format: functional
HepG2 [8] = assay: Induction of apoptosis in human HepG2 cells assessed as activation of cleaved PARP1 expression at 0.7 uM incubated for 24 hrs by Western blot analysis; format: functional, cell-based
[9] = Selectivity index, ratio of GI50 for mouse BALA/3T3 cells to GI50 for human HepG2 cells measured after 72 hrs by LDH assay; format: toxicity; conditions: BALA/3T3 cells versus HepG2 cells, read-out: Selectivity Index
[10] = (§2) Cytotoxicity against mouse BALB/3T3 cells assessed as cell growth inhibition measured after 72 hrs by LDH assay; format: cell-based; conditions: BALB/3T3 cells
BALB/3T3 [11] = assay: as §2; format: cell-based; conditions: balb/3t3, 72 h
[12] = Cytotoxicity against human HaCaT cells assessed as cell growth inhibition measured after 72 hrs by MTT assay; format: cell-based
[13] = Selectivity index, ratio of GI50 for mouse BALA/3T3 cells to GI50 for human MCF7 cells; format: toxicity; conditions: BALA/3T3 cells versus MCF7 cells, read-out: RatioGI50
HeLa = assay: Cytotoxicity against human HeLa cells assessed as cell growth inhibition measured after 72 hrs by MTT assay; format: functional
[14] = (§3) Cytotoxicity against mouse BALB/3T3 cells assessed as cell growth inhibition measured after 48 hrs by LDH assay; format: cell-based; conditions: BALB/3T3 cells
BALB/3T3 [15] = assay: as §3; format: cell-based; conditions: balb/3t3, 48 h
[16] = Selectivity index, ratio of GI50 for mouse BALA/3T3 cells to GI50 for human HepG2 cells measured after 48 hrs by LDH assay; format: toxicity; conditions: BALA/3T3 cells versus HepG2 cells, read-out: Selectivity Index
[17] = Selectivity index, ratio of GI50 for mouse BALA/3T3 cells to GI50 for human HepG2 cells measured after 72 hrs by neutral red uptake assay; format: toxicity; conditions: BALA/3T3 cells versus HepG2 cells, read-out: Selectivity Index
MCF7 = assay: Cytotoxicity against human MCF7 cells assessed as cell growth inhibition measured after 72 hrs by MTT assay; format: functional
[18] = Selectivity index, ratio of GI50 for human HaCaT cells to GI50 for human THP-1 cells
[19] = (§4) Cytotoxicity against mouse BALB/3T3 cells assessed as cell growth inhibition measured after 48 hrs by neutral red uptake assay; format: cell-based; conditions: BALB/3T3 cells
BALB/3T3 [20] = assay: as §4; format: cell-based; conditions: balb/3t3, 48 h
HepG2 [21] = assay: Induction of cell cycle arrest in human HepG2 cells assessed as effect on phospho-Chk2 expression at 45 uM measured after 24 hrs by Western blot analysis; format: functional, cell-based
HepG2 [22] = assay: Induction of apoptosis in human HepG2 cells assessed as increase in Bax expression at 45 uM after 24 hrs by Western blot analysis; format: functional, cell-based
[23] = (§5) Cytotoxicity against mouse BALB/3T3 cells assessed as cell growth inhibition measured after 48 hrs by coomassie brilliant blue staining based total cellular protein assay; conditions: BALB/3T3 cells
BALB/3T3 [24] = assay: as §5; conditions: balb/3t3, 48 h
HepG2 [25] = assay: Induction of DNA damage in human HepG2 cells assessed as increase in olive tail moment incubated at 0.7 uM measured after 24 hrs by alkaline Comet assay; format: functional
[26] = Selectivity index, ratio of GI50 for human HaCaT cells to GI50 for human MCF7 cells; format: toxicity; conditions: HaCaT cells versus MCF7 cells, read-out: RatioGI50
[27] = Selectivity index, ratio of GI50 for human HaCaT cells to GI50 for human HeLa cells; format: toxicity; conditions: HaCaT cells versus HeLa cells, read-out: RatioGI50
HepG2 [28] = assay: Cytotoxicity against human HepG2 cells assessed as cell growth inhibition measured after 24 hrs by neutral red uptake assay; format: functional
HepG2 [29] = assay: Cytotoxicity against human HepG2 cells assessed as cell growth inhibition measured after 72 hrs by neutral red uptake assay; format: functional
[30] = Selectivity index, ratio of GI50 for mouse BALA/3T3 cells to GI50 for human HepG2 cells measured after 24 hrs by LDH assay; format: toxicity; conditions: BALA/3T3 cells versus HepG2 cells, read-out: Selectivity Index
[31] = Selectivity index, ratio of GI50 for human HaCaT cells to GI50 for human HCT-116 cells; format: toxicity; conditions: HaCaT cells versus HCT-116 cells, read-out: RatioGI50
HCT-116 [32] = assay: Induction of DNA damage in human HCT-116 cells assessed as increase in tail length at 0.7 uM incubated measured after 24 hrs by alkaline Comet assay; format: functional, cell-based
[33] = Selectivity index, ratio of GI50 for mouse BALA/3T3 cells to GI50 for human WM793 cells
THP-1 = assay: Cytotoxicity against human THP-1 cells assessed as cell growth inhibition measured after 72 hrs by MTT assay; format: functional
Salmon testes DNA = assay: Displacement of methyl green from salmon sperm DNA at 10 uM measured after 2 hrs by fluorescence plate reader method relative to control; format: cell-based; conditions: Salmo salar, Spermatozoa
HCT-116 [34] = assay: Cytotoxicity against human HCT-116 cells assessed as cell growth inhibition measured after 72 hrs by MTT assay; format: functional
HepG2 [35] = assay: Induction of cell cycle arrest in human HepG2 cells assessed as effect of phospho-Rb expression at 45 uM measured after 24 hrs by Western blot analysis; format: functional, cell-based
HepG2 [36] = assay: Cytotoxicity against human HepG2 cells assessed as cell growth inhibition measured after 24 hrs by coomassie brilliant blue staining based total cellular protein assay; format: functional
[37] = (§6) Cytotoxicity against mouse BALB/3T3 cells assessed as cell growth inhibition measured after 72 hrs by neutral red uptake assay; format: cell-based; conditions: BALB/3T3 cells
BALB/3T3 [38] = assay: as §6; format: cell-based; conditions: balb/3t3, 72 h
[39] = Selectivity index, ratio of GI50 for mouse BALA/3T3 cells to GI50 for human HepG2 cells; format: toxicity; conditions: BALA/3T3 cells versus HepG2 cells, read-out: RatioGI50
[40] = Selectivity index, ratio of GI50 for mouse BALA/3T3 cells to GI50 for human HeLa cells; format: toxicity; conditions: BALA/3T3 cells versus HeLa cells, read-out: RatioGI50

## COC(=O)c1[nH]c2ccc(F)cc2c1/C=C1\SC(=S)NC1=O
[1]
  RatioGI50: 0.87
[2]
  selectivity ratio at 48 h: 4.1
HCT-116 [3]
  Activity: Active
[4]
  GI50 at 24 h: > 100 µM
BALB/3T3 [5]
  GI20: 5.4 µM
  GI80: > 100 µM
HepG2 [6]
  GI20: 1.6 µM
  GI80: >100 µM
HepG2 [6]; Homo sapiens, HepG2
  GI50: 63.9 µM
[7]
  selectivity ratio: 7.17
A549
  GI50: 9.7 µM
HepG2 [8]
  Activity: Active
[9]
  selectivity ratio at 72 h: 1570
[10]
  GI50 at 72 h: 62.8 µM
BALB/3T3 [11]
  GI20: 2.9 µM
  GI80: > 100 µM
[12]
  GI50 at 72 h: 98.3 µM
[13]
  selectivity ratio: 99.4
HeLa
  GI50: 49.3 µM
[14]
  GI50 at 48 h: 89.7 µM
BALB/3T3 [15]
  GI20: 16.4 µM
  GI80: > 100 µM
[16]
  selectivity ratio at 48 h: 1500
[17]
  selectivity ratio at 72 h: 8.9
MCF7
  GI50: 0.7 µM
[18]
  RatioGI50: 1.11
[19]
  GI50 at 48 h: > 100 µM
BALB/3T3 [20]
  GI20: 2.4 µM
  GI80: > 100 µM
HepG2 [21]
  Activity: inactive
HepG2 [22]
  Activity: Active
[23]
  GI50 at 48 h: > 100 µM
BALB/3T3 [24]
  GI20: 3.7 µM
  GI80: > 100 µM
HepG2 [25]
  Activity: 13.2
[26]
  selectivity ratio: 99.4
[27]
  selectivity ratio: 1.41
HepG2 [28]
  GI20: 2.4 µM
  GI80: 80.7 µM
HepG2 [28]; Homo sapiens, HepG2
  GI50: 40.1 µM
HepG2 [29]
  GI20: <0.01 µM
  GI80: 59.6 µM
HepG2 [29]; Homo sapiens, HepG2
  GI50: 7.5 µM
[30]
  selectivity ratio at 24 h: 323
[31]
  selectivity ratio: 86.9
HCT-116 [32]
  Activity: Active
[33]
  RatioGI50: 0.87
THP-1
  GI50: 62.4 µM
Salmon testes DNA
  Activity: 5.4%
HCT-116 [34]
  GI50: 0.8 µM
HepG2 [35]
  Activity: inactive
HepG2 [36]
  GI20: 3.7 µM
  GI80: >100 µM
HepG2 [36]; Homo sapiens, HepG2
  GI50: > 100 µM
[37]
  GI50 at 72 h: 51.5 µM
BALB/3T3 [38]
  GI20: 0.7 µM
  GI80: > 100 µM
[39]
  selectivity ratio: 5.75
[40]
  selectivity ratio: 1.41
